Target: T1, ITK (Homo sapiens, UniProt Q08881)
T1 sequence (Q08881 1-620): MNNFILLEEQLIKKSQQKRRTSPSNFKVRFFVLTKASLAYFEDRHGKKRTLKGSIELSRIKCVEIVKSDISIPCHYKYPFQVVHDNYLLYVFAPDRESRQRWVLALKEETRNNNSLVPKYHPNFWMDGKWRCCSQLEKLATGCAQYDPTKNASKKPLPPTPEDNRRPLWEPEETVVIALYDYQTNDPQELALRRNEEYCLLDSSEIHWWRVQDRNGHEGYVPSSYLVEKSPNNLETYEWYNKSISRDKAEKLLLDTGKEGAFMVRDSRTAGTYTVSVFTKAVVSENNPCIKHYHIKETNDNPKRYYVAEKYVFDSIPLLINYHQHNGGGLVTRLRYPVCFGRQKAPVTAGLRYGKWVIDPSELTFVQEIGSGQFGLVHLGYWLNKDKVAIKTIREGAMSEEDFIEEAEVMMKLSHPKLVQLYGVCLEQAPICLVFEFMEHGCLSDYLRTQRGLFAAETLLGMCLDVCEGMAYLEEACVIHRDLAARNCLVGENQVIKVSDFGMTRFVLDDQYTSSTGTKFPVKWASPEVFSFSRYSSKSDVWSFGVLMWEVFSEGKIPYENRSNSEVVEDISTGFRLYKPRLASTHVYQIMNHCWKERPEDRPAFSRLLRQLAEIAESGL
Assay: ITK degradation HiBiT assay
Type: cell-based
Parameters: expressed in transfected cells; host or cells: Molt4 (ATCC CRL-1552), monoclonal clone 1C10, engineered to carry the HiBiT tag
Conditions: 4 hrs; for DC50: C-terminal HiBiT-tagged Molt4 cells; for Dmax: MOLT-4, C-terminal HiBiT-tagged Molt4 cells
Outline: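 C-terminal HiBiT-tagged Molt4 cells (clone 1C10) treated 4 h at 32° C with an 11-point, 5-fold compound dilution series (0.5% DMSO). HiBiT lytic detection with LgBiT then luminescence read; % ITK remaining versus concentration fit by four-parameter variable-slope model to give DC50 and Dmax.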

SMILES | DC50 [nM] | Dmax [%]
C[C@@]12Cc3[nH]nc(C(=O)Nc4cnn(C5CCC(CN6CCc7cc(C8CCC(=O)NC8=O)ccc7C6)CC5)c4)c3C[C@@H]1C2(F)F (mixture of isomers) [Compound 123, (4aS,5aR)-5,5-difluoro-5a-methyl-N-{1-[(lsr,4sr)-4-({6-[(3RS)-2,6-dioxopiperidin-3-yl]-1,2,3,4-tetrahydroisoquinolin-2-yl}methyl)cyclohexyl]-1H-pyrazol-4-yl}-1H,4H,4aH,5H,5aH,6H-cyclopropa[f]indazole-3-carboxamide] | 63.1 | 63
C[C@@]12Cc3[nH]nc(C(=O)Nc4cnn([C@H](c5ccccc5)C5CN(C(=O)N6CCC7(CCN(c8ccc9c(c8)C(=O)N(C8CCC(=O)NC8=O)C9=O)CC7)C6)C5)c4)c3C[C@@H]1C2(F)F (stereo partly drawn) [Compound 53] | 3.3 | 94
CC1(C)CCc2c(-c3cc4ccc(N5CCC6(CCN(Cc7ccc8c(c7)C(=O)N(C7CCC(=O)NC7=O)C8=O)CC6)C5=O)cc4[nH]3)n[nH]c2C1 (stereo not drawn) [Compound 8, 5-((2-(2-(6,6-dimethyl-4,5,6,7-tetrahydro-1H-indazol-3-yl)-1H-indol-6-yl)-1-oxo-2,8-diazaspiro[4.5]decan-8-yl)methyl)-2-(2,6-dioxopiperidin-3-yl)isoindoline-1,3-dione] | 7.8 | 92
CC1(C)CCc2c(-c3cc4cc(F)c(C(=O)N5CCN(CC6CCN(c7ccc(C8CCC(=O)NC8=O)cn7)CC6)CC5)cc4[nH]3)n[nH]c2C1 (stereo not drawn) [Compound 136, 3-(6-(4-((4-(2-(6,6-dimethyl-4,5,6,7-tetrahydro-1H-indazol-3-yl)-5-fluoro-1H-indole-6-carbonyl)piperazin-1-yl)methyl)piperidin-1-yl)pyridin-3-yl)piperidine-2,6-dione] | 0.45 | 80
C[C@@]12Cc3[nH]nc(C(=O)Nc4cnn(C5CCN(C(=O)C6CCC(Oc7ccc(C8CCC(=O)NC8=O)cn7)CC6)CC5)c4)c3C[C@@H]1C2(F)F (mixture of isomers) [Compound 168] |  | 88
C[C@@]12Cc3[nH]nc(-c4cc5cc(F)c(C(=O)N6CCN(CC7CCN(c8ccc(C9CCC(=O)NC9=O)cc8)CC7)CC6)cc5[nH]4)c3C[C@@H]1C2(F)F (stereo partly drawn) [Compound 138, 3-(4-(4-((4-(2-((4aS,5aR)-5,5-difluoro-5a-methyl-1,4,4a,5,5a,6-hexahydrocyclopropa[f]indazol-3-yl)-5-fluoro-1H-indole-6-carbonyl)piperazin-1-yl)methyl)piperidin-1-yl)phenyl)piperidine-2,6-dione] | 0.076 | 83
C[C@@]12Cc3[nH]nc(C(=O)Nc4cnn([C@H]5CCN(CC6CCN(c7ccc([C@H]8CCC(=O)NC8=O)cc7)CC6)C[C@@H]5F)c4)c3C[C@@H]1C2(F)F (single isomer, unassigned) [Compound 95] | 0.6 | 90
C[C@@H]1CN(C(=O)c2ccc3cc(-c4n[nH]c5c4C[C@@H]4C(F)(F)[C@]4(C)C5)[nH]c3c2)CCN1CC1CCN(c2ccc(C3CCC(=O)NC3=O)c(F)c2)CC1 (stereo partly drawn) [Compound 160] |  | 83
C[C@@]12Cc3[nH]nc(-c4cc5cc(F)c(C(=O)N6CCN(CC7CCN(c8ccc([C@H]9CCC(=O)NC9=O)cc8)CC7)CC6)cc5[nH]4)c3C[C@@H]1C2(F)F (single isomer, unassigned) [Compound 220] | 1.4 | 89
C[C@@]12Cc3[nH]nc(-c4nc5ccc(C(=O)N6CCN(CC7CCN(c8ccc(C9CCC(=O)NC9=O)cc8)CC7)CC6)cc5[nH]4)c3C[C@@H]1C2(F)F (mixture of isomers) [Compound 227, (3RS)-3-(4-{4-[(4-{2-[(4aS,5aR)-5,5-difluoro-5a-methyl-1H,4H,4aH,6H-cyclopropa [f]indazol-3-yl]-3H-1,3-benzodiazole-5-carbonyl}piperazin-1-yl)methyl]piperidin-1-yl}phenyl)piperidine-2,6-dione] | 0.6 | 87
CC1(C)CCc2c(-c3cc4cc(C(=O)N5CCC(CN6CCc7cc(C8CCC(=O)NC8=O)ccc7C6)CC5)ccc4[nH]3)n[nH]c2C1 (stereo not drawn) [Compound 194] |  | 64
C[C@@]12Cc3[nH]nc(C(=O)Nc4cnn(C5CCN(C(=O)C6CCN(c7ccc(C8CCC(=O)NC8=O)cn7)C6)CC5)c4)c3C[C@@H]1C2(F)F (mixture of isomers) [Compound 167] |  | 86
C[C@@]12Cc3[nH]nc(C(=O)Nc4cnn(C5CCN(CC6(F)CCN(c7ccc(C8CCC(=O)NC8=O)cc7)CC6)CC5)c4)c3C[C@@H]1C2(F)F (stereo partly drawn) [Compound 97, (4aS,5aR)-N-(1-(1-((1-(4-(2,6-dioxopiperidin-3-yl)phenyl)-4-fluoropiperidin-4-yl)methyl)piperidin-4-yl)-1H-pyrazol-4-yl)-5,5-difluoro-5a-methyl-1,4,4a,5,5a,6-hexahydrocyclopropa[f]indazole-3-carboxamide] | 2.6 | 88
C[C@H]1CN(C(=O)c2ccc3cc(-c4n[nH]c5c4C[C@@H]4C(F)(F)[C@]4(C)C5)[nH]c3c2)CCN1CC1CCN(c2ccc(C3CCC(=O)NC3=O)cc2F)CC1 (mixture of isomers) [Compound 155] |  | 84
C[C@@]12Cc3[nH]nc(C(=O)Nc4cnn(C5CCN(C(=O)C6CCN(c7ccc(C(=O)NC8CCC(=O)NC8=O)nc7)CC6)CC5)c4)c3C[C@@H]1C2(F)F (mixture of isomers) [Compound 180] |  | 72
C[C@@]12Cc3[nH]nc(C(=O)Nc4ccc(C5CCN(CC6CCN(c7ccc(C8CCC(=O)NC8=O)cc7)CC6)CC5)nc4)c3C[C@@H]1C2(F)F (stereo partly drawn) [Compound 110, (4aS,5aR)-N-(6-(1-((1-(4-(2,6-dioxopiperidin-3-yl)phenyl)piperidin-4-yl)methyl)piperidin-4-yl)pyridin-3-yl)-5,5-difluoro-5a-methyl-1,4,4a,5,5a,6-hexahydrocyclopropa[f]indazole-3-carboxamide] | 1.7 | 88
C[C@@]12Cc3[nH]nc(C(=O)Nc4ccc(C5CCN(CC6CCN(c7ccc(C8CCC(=O)NC8=O)cn7)CC6)CC5)nc4)c3C[C@@H]1C2(F)F (stereo partly drawn) [Compound 111, (4aS,5aR)-N-(6-(1-((1-(5-(2,6-dioxopiperidin-3-yl)pyridin-2-yl)piperidin-4-yl)methyl)piperidin-4-yl)pyridin-3-yl)-5,5-difluoro-5a-methyl-1,4,4a,5,5a,6-hexahydrocyclopropa[f]indazole-3-carboxamide] | 1.2 | 90
C[C@@]12Cc3[nH]nc(C(=O)Nc4cnn(C5CCN(C(=O)C6CCC(Cn7cc8cc(C9CCC(=O)NC9=O)ccc8n7)CC6)CC5)c4)c3C[C@@H]1C2(F)F (mixture of isomers) [Compound 165] |  | 86
C[C@@H]1CN(C(=O)c2ccc3cc(-c4n[nH]c5c4CCC(C)(C)C5)[nH]c3c2)CCN1CC1CCN(c2ccc(C3CCC(=O)NC3=O)cn2)CC1 (stereo partly drawn) [Compound 129, 3-(6-(4-(((R)-4-(2-(6,6-dimethyl-4,5,6,7-tetrahydro-1H-indazol-3-yl)-1H-indole-6-carbonyl)-2-methylpiperazin-1-yl)methyl)piperidin-1-yl)pyridin-3-yl)piperidine-2,6-dione] | 4.9 | 81
C[C@H]1CN(CC2CCN(c3ccc(C4CCC(=O)NC4=O)cn3)CC2)CCN1C(=O)c1ccc2cc(-c3n[nH]c4c3CCC(C)(C)C4)[nH]c2c1 (stereo partly drawn) [Compound 130, 3-(6-(4-(((S)-4-(2-(6,6-dimethyl-4,5,6,7-tetrahydro-1H-indazol-3-yl)-1H-indole-6-carbonyl)-3-methylpiperazin-1-yl)methyl)piperidin-1-yl)pyridin-3-yl)piperidine-2,6-dione] | 5.5 | 85
